Assay results from US8642585B2, “Indanyloxydihydrobenzofuranylacetic acids” (Boehringer Ingelheim International GmbH, priority 2012, dated 2014).

molecular target: human GPR40 receptor (Homo sapiens, UniProt O14842); test: Assay II: IP1 accumulation (IPOne HTRF) in 1321N1 cells stably expressing human GPR40; type: cell-based; details: 1321N1 cells expressing human GPR40, stimulation 1 h at 37° C., 5% CO2, LiCl 50 mM
Protocol: IP1 accumulation measurements using the IPOne assay system—1321N1 cells stably expressing human GPR40 receptor (Euroscreen, Belgium) are seeded 24 h before the assay in white 384-well plates in culture medium containing 10% FCS, 1% Na-Pyruvate and 400 μg/mL G418. IP1 is assayed according to the manufacturers description (Cisbio Bioassays, France). In brief, the assay is started by substitution of the culture medium by stimulation buffer (Hepes 10 mM, CaCl2 1 mM, MgCl2 0.5 mM, KCl 4.2 mM, NaCl 146 mM, glucose 5.5 mM and LiCl 50 mM, pH 7.4). Cells are stimulated for 1 h at 37° C., 5% CO2 by addition of the compounds that are diluted in stimulation buffer containing LiCl. Assays are stopped by adding HTRF-conjugates (IP1-d2 and Anti-IP1 cryptate Tb) and lysis buffer, provided by the manufacturer. After an incubation time of 1 h at room temperature plates are measured using an EnVision™, Perkin Elmer. The obtained fluorescence ratios at 665/615 nM are then used to calculate the pEC50 values using Assay Explorer 3.3 Software (Accelrys, Inc.) by interpolation using an IP1 reference curve and subsequent sigmoidal curve fitting allowing for a variable hill slope.

Chain of human GPR40 receptor (O14842 whole entry): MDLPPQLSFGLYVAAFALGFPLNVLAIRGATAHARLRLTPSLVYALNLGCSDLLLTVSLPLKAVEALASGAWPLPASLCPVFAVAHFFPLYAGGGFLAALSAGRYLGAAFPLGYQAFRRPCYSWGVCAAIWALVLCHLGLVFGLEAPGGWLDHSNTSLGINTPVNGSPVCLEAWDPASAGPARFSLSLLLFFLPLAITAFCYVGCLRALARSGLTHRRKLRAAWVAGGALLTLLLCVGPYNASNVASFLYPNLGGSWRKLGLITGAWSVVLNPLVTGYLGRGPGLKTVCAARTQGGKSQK

Structure (SMILES) | EC50 [nM]
Cc1cc(-c2nnn(C(C)(C)CO)n2)cc(C)c1-c1ccc(F)c2c1CC[C@H]2Oc1ccc2c(c1)OC[C@H]2CC(=O)O [Example 99, 2-((S)-6-((R)-7-Fluoro-4-(4-(2-(1-hydroxy-2-methylpropan-2-yl)-2H-tetrazol-5-yl)-2,6-dimethylphenyl)-2,3-dihydro-1H-inden-1-yloxy)-2,3-dihydrobenzofuran-3-yl)acetic acid] | 4
CC(C)(C)COc1ncccc1-c1ccc(F)c2c1CC[C@H]2Oc1ccc2c(c1)OC[C@H]2CC(=O)O [Example 100] | 58
Cc1cc(-c2ccc(=O)n(C)n2)cc(C)c1-c1ccc(F)c2c1CC[C@H]2Oc1ccc2c(c1)OC[C@H]2CC(=O)O [Example 101, 2-((S)-6-((R)-4-(2,6-Dimethyl-4-(1-methyl-6-oxo-1,6-dihydropyridazin-3-yl)phenyl)-7-fluoro-2,3-dihydro-1H-inden-1-yloxy)-2,3-dihydrobenzofuran-3-yl)acetic acid] | 3
CN(C)C(=O)c1ccccc1-c1ccc(F)c2c1CC[C@H]2Oc1ccc2c(c1)OC[C@H]2CC(=O)O [Example 102, 2-((3S)-6-((1R)-4-(2-(Dimethylcarbamoyl)phenyl)-7-fluoro-2,3-dihydro-1H-inden-1-yloxy)-2,3-dihydrobenzofuran-3-yl)acetic acid] | 2240
Cn1nnnc1-c1c(F)cccc1-c1ccc(F)c2c1CC[C@H]2Oc1ccc2c(c1)OC[C@H]2CC(=O)O [Example 103, 2-((3S)-6-((1R)-7-Fluoro-4-(3-fluoro-2-(1-methyl-1H-tetrazol-5-yl)phenyl)-2,3-dihydro-1H-inden-1-yloxy)-2,3-dihydrobenzofuran-3-yl)acetic acid] | 1430
Cc1cc(-c2ccncc2)cc(C)c1-c1ccc(F)c2c1CC[C@H]2Oc1ccc2c(c1)OC[C@H]2CC(=O)O [Example 104, {(S)-6-[(R)-4-(2,6-Dimethyl-4-pyridin-4-yl-phenyl)-7-fluoro-indan-1-yloxy]-2,3-dihydro-benzofuran-3-yl}-acetic acid] | 7
O=C(O)C[C@@H]1COc2cc(O[C@@H]3CCc4c(-c5cccnc5-c5ccoc5)ccc(F)c43)ccc21 [Example 105, {(S)-6-[(R)-7-Fluoro-4-(2-furan-3-yl-pyridin-3-yl)-indan-1-yloxy]-2,3-dihydro-benzofuran-3-yl}-acetic acid] | 582
O=C(O)C[C@@H]1COc2cc(O[C@@H]3CCc4c(-c5cccnc5-c5ccccc5)ccc(F)c43)ccc21 [Example 106, {(S)-6-[(R)-7-Fluoro-4-(2-phenyl-pyridin-3-yl)-indan-1-yloxy]-2,3-dihydro-benzofuran-3-yl}-acetic acid] | 59
Cc1cc(-c2cc(C)c(-c3ccc(F)c4c3CC[C@H]4Oc3ccc4c(c3)OC[C@H]4CC(=O)O)c(C)c2)ccn1 [Example 107, {(S)-6-[(R)-4-(2,6-Dimethyl-4-(2-methyl-pyridin-4-yl)-phenyl)-7-fluoro-indan-1-yloxy]-2,3-dihydro-benzofuran-3-yl}-acetic acid] | 4
Cc1nn(C)c(C)c1-c1ncccc1-c1ccc(F)c2c1CC[C@H]2Oc1ccc2c(c1)OC[C@H]2CC(=O)O [Example 108, {(S)-6-[(R)-7-Fluoro-4-[2-(1,3,5-trimethyl-pyrazol-4-yl)-pyridin-3-yl]-indan-1-yloxy]-2,3-dihydro-benzofuran-3-yl}-acetic acid] | > 10000
Cc1cc(-c2c(C)nn(C)c2C)cc(C)c1-c1ccc(F)c2c1CC[C@H]2Oc1ccc2c(c1)OC[C@H]2CC(=O)O [Example 109, {(S)-6-[(R)-4-(2,6-Dimethyl-4-(1,3,5-trimethyl-pyrazol-4-yl)-phenyl)-7-fluoro-indan-1-yloxy]-2,3-dihydro-benzofuran-3-yl}-acetic acid] | 8
O=C(O)C[C@@H]1COc2cc(O[C@@H]3CCc4c(-c5cccnc5C5CCOCC5)ccc(F)c43)ccc21 [Example 110, {(S)-6-[(R)-7-Fluoro-4-(2-tetrahydropyran-4-yl-pyridin-3-yl)-indan-1-yloxy]-2,3-dihydro-benzofuran-3-yl}-acetic acid] | 351
Cc1cncc(-c2cc(C)c(-c3ccc(F)c4c3CC[C@H]4Oc3ccc4c(c3)OC[C@H]4CC(=O)O)c(C)c2)c1 [Example 111, {(S)-6-[(R)-4-(2,6-Dimethyl-4-(5-methyl-pyridin-3-yl)-phenyl)-7-fluoro-indan-1-yloxy]-2,3-dihydro-benzofuran-3-yl}-acetic acid] | 4
Cc1cc(-c2cccnc2)cc(C)c1-c1ccc(F)c2c1CC[C@H]2Oc1ccc2c(c1)OC[C@H]2CC(=O)O [Example 112, {(S)-6-[(R)-4-(2,6-Dimethyl-4-pyridin-3-yl-phenyl)-7-fluoro-indan-1-yloxy]-2,3-dihydro-benzofuran-3-yl}-acetic acid] | 5
Cc1cnc(-c2cc(C)c(-c3ccc(F)c4c3CC[C@H]4Oc3ccc4c(c3)OC[C@H]4CC(=O)O)c(C)c2)nc1 [Example 113, {(S)-6-[(R)-4-(2,6-Dimethyl-4-(5-methyl-pyrimidin-2-yl)-phenyl)-7-fluoro-indan-1-yloxy]-2,3-dihydro-benzofuran-3-yl}-acetic acid] | 1
Cc1cnc(-c2cc(C)c(-c3ccc(F)c4c3CC[C@H]4Oc3ccc4c(c3)OC[C@H]4CC(=O)O)c(C)c2)cn1 [Example 114, {(S)-6-[(R)-4-(2,6-Dimethyl-4-(5-methyl-pyrazin-2-yl)-phenyl)-7-fluoro-indan-1-yloxy]-2,3-dihydro-benzofuran-3-yl}-acetic acid] | 2
Cc1cc(-c2cc(C)c(-c3ccc(F)c4c3CC[C@H]4Oc3ccc4c(c3)OC[C@H]4CC(=O)O)c(C)c2)nc(C)n1 [Example 115, {(S)-6-[(R)-4-(2,6-Dimethyl-4-(2,6-dimethyl-pyrimidin-4-yl)-phenyl)-7-fluoro-indan-1-yloxy]-2,3-dihydro-benzofuran-3-yl}-acetic acid] | 2
COc1cc(-c2cc(C)c(-c3ccc(F)c4c3CC[C@H]4Oc3ccc4c(c3)OC[C@H]4CC(=O)O)c(C)c2)ccn1 [Example 116, {(S)-6-[(R)-4-(2,6-Dimethyl-4-(2-methoxy-pyridin-4-yl)-phenyl)-7-fluoro-indan-1-yloxy]-2,3-dihydro-benzofuran-3-yl}-acetic acid] | 3
Cc1ccc(-c2cc(C)c(-c3ccc(F)c4c3CC[C@H]4Oc3ccc4c(c3)OC[C@H]4CC(=O)O)c(C)c2)cn1 [Example 117, {(S)-6-[(R)-4-(2,6-Dimethyl-4-(6-methyl-pyridin-3-yl)-phenyl)-7-fluoro-indan-1-yloxy]-2,3-dihydro-benzofuran-3-yl}-acetic acid] | 2
Cc1cncc(-c2cc(C)c(-c3ccc(F)c4c3CC[C@H]4Oc3ccc4c(c3)OC[C@H]4CC(=O)O)c(C)c2)n1 [Example 118, {(S)-6-[(R)-4-(2,6-Dimethyl-4-(6-methyl-pyrazin-2-yl)-phenyl)-7-fluoro-indan-1-yloxy]-2,3-dihydro-benzofuran-3-yl}-acetic acid] | 2
Cc1ccnc(-c2cc(C)c(-c3ccc(F)c4c3CC[C@H]4Oc3ccc4c(c3)OC[C@H]4CC(=O)O)c(C)c2)n1 [Example 119, {(S)-6-[(R)-4-(2,6-Dimethyl-4-(4-methyl-pyrimidin-2-yl)-phenyl)-7-fluoro-indan-1-yloxy]-2,3-dihydro-benzofuran-3-yl}-acetic acid] | 1
Cc1ccc(-c2cc(C)c(-c3ccc(F)c4c3CC[C@H]4Oc3ccc4c(c3)OC[C@H]4CC(=O)O)c(C)c2)nn1 [Example 120, {(S)-6-[(R)-4-(2,6-Dimethyl-4-(6-methyl-pyridazin-3-yl)-phenyl)-7-fluoro-indan-1-yloxy]-2,3-dihydro-benzofuran-3-yl}-acetic acid] | 2
Cc1cc(-c2cc(C)c(-c3ccc(F)c4c3CC[C@H]4Oc3ccc4c(c3)OC[C@H]4CC(=O)O)c(C)c2)cc(C)n1 [Example 121, {(S)-6-[(R)-4-(2,6-Dimethyl-4-(2,6-dimethyl-pyridin-4-yl)-phenyl)-7-fluoro-indan-1-yloxy]-2,3-dihydro-benzofuran-3-yl}-acetic acid] | 2
Cc1cc(-c2cnccn2)cc(C)c1-c1ccc(F)c2c1CC[C@H]2Oc1ccc2c(c1)OC[C@H]2CC(=O)O [Example 122, {(S)-6-[(R)-4-(2,6-Dimethyl-4-pyrazin-2-yl-phenyl)-7-fluoro-indan-1-yloxy]-2,3-dihydro-benzofuran-3-yl}-acetic acid] | 2
Cc1cc(-c2cnc(C3CC3)cn2)cc(C)c1-c1ccc(F)c2c1CC[C@H]2Oc1ccc2c(c1)OC[C@H]2CC(=O)O [Example 123, {(S)-6-[(R)-4-(2,6-Dimethyl-4-(5-cyclopropyl-pyrazin-2-yl)-phenyl)-7-fluoro-indan-1-yloxy]-2,3-dihydro-benzofuran-3-yl}-acetic acid] | 7
Cc1cccc(C)c1-c1ncccc1-c1ccc(F)c2c1CC[C@H]2Oc1ccc2c(c1)OC[C@H]2CC(=O)O [Example 124, {(S)-6-[(R)-4-(2-(2,6-Dimethyl-phenyl)-pyridin-3-yl)-7-fluoro-indan-1-yloxy]-2,3-dihydro-benzofuran-3-yl}-acetic acid] | 339
CCc1ccc(-c2cc(C)c(-c3ccc(F)c4c3CC[C@H]4Oc3ccc4c(c3)OC[C@H]4CC(=O)O)c(C)c2)nn1 [Example 125, {(S)-6-[(R)-4-(2,6-Dimethyl-4-(6-ethyl-pyridazin-3-yl)-phenyl)-7-fluoro-indan-1-yloxy]-2,3-dihydro-benzofuran-3-yl}-acetic acid] | 4
